Measured values reported in the SangsterLogP compilation.

Row | Compound | logP
1 | CCOP(=S)(Oc1ccc(Cl)cc1Cl)SCC(=O)N(CC)c1ccccc1C (stereo not given) | 2.82
2 | CCOC(=O)CN(C(=O)CCl)c1cccc(Cl)c1 | 2.42
3 | CCN(C(=O)CSP(=S)(OC)OC)c1ccccc1 | 2.26
4 | CCOP(=S)(Oc1ccc(Cl)cc1Cl)SCC(=O)N(CC)c1ccc(C)cc1 (stereo not given) | 2.82
5 | C=CCN(C(=O)CCl)c1ccc(C)cc1 | 2.92
6 | COP(=S)(OC)SCC(=O)N(Cc1ccccc1)c1ccccc1 | 3.13
7 | CCN(C(=O)CCl)c1ccccc1 | 2.26
8 | CCCN(C(=O)CCl)c1ccc(Cl)cc1 | 3.62
9 | C=CCN(C(=O)CSP(=S)(OC)OC)c1ccc(Cl)cc1 | 3.19
10 | COP(=S)(OC)SCC(=O)N(Cc1ccccc1)c1ccc(Cl)cc1 | 4.09
11 | O=C(CCl)N(Cc1ccccc1)c1cccc(Cl)c1 | 4.28
12 | C=CCN(C(=O)CCl)c1cccc(Cl)c1 | 3.38
13 | CCOC(=O)[C@H](C)N(C(=O)CCl)c1ccccc1 | 1.79
14 | CCN(C(=O)CCl)c1ccccc1C | 2.82
15 | CCN(C(=O)CSP(=S)(OC)OC)c1ccc(C)cc1 | 2.81
16 | CCOC(=O)[C@H](C)N(C(=O)CCl)c1ccc(Cl)cc1 | 2.75
17 | CCOC(=O)C(C)N(C(=O)CSP(=S)(OC)OC)c1ccc(Cl)cc1 (stereo not given) | 2.75
18 | C=CCN(C(=O)CCl)c1ccc(Cl)cc1 | 3.19
19 | O=C(CCl)N(Cc1ccccc1)c1ccccc1 | 3.13
20 | CCOC(=O)CN(C(=O)CSP(=S)(OC)OC)c1ccc(Cl)cc1 | 2.15
21 | CCOC(=O)C(C)N(C(=O)CSP(=S)(OC)OC)c1ccccc1 (stereo not given) | 1.79
22 | CCOC(=O)CN(C(=O)CCl)c1ccc(Cl)cc1 | 2.15
23 | COP(=S)(OC)SCC(=O)N(c1ccccc1)C(C)C | 2.5
24 | CCOC(=O)C(C)N(C(=O)CSP(=S)(OC)OC)c1cccc(Cl)c1 (stereo not given) | 3.68
25 | CCOC(=O)CN(C(=O)CSP(=S)(OC)OC)c1ccccc1 | 1.19
26 | O=C(CCl)N(Cc1ccccc1)c1ccc(Cl)cc1 | 4.09
27 | CCN(C(=O)CSP(=S)(OC)OC)c1ccccc1C | 2.82
28 | C=CCN(C(=O)CSP(=S)(OC)OC)c1ccc(C)cc1 | 2.92
29 | C=CCN(C(=O)CSP(=S)(OC)OC)c1ccccc1C | 2.93
30 | CCOC(=O)CN(C(=O)CSP(=S)(OC)OC)c1ccccc1Cl | 2.42
